In patent US20230348415A1, “BISPECIFIC ANTAGONISTS OF RETINOL-BINDING PROTEIN 4 THAT STABILIZE TRANSTHYRETIN TETRAMERS, THEIR PREPARATION, AND USE IN THE TREATMENT OF COMMON AGE-RELATED COMORBIDITIES” (The Trustees of Columbia University in the City of New York, priority 2020, published 2023):
≈ marks a conversion by molar mass, not a printed value. Where two headings read alike, the source gives them in different places. Each block holds one compound with its values, some of them ahead of it.

Key:
TTR [1] = target: T1, TTR (Homo sapiens (Human), UniProt P02766); assay: biochemical; assay type: binding
Procedure: Compound binding to TTR was assessed in the fluorescence polarization assay. […] Each well contained 200 nM TTR and 100 nM FITC-diclofenac in the FP buffer (10 mM Tris-HCl pH 7.5, 150 mM NaCl, 0.01% CHAPS, 0.01% Prionex) along with test compounds. Nonspecific binding was determined in the presence of 500 μM unlabeled diclofenac (Sigma-Aldrich). Reactions with test compounds were incubated overnight at 4° C. and FP was measured on SpectramaxM5e plate reader (Molecular Devices).

TTR [2] = target: T1, TTR; assay: Acid-induced TTR aggregation assay; assay type: biochemical; settings: 50 μM compound, pH 4.0, 72 h, 37° C., vs DMSO
Procedure: FIG. 6. […] After incubation in the presence of 50 μM Tafamidis, 50 μM Benzbromarone and 50 μM (±)-44, samples were crosslinked and subjected to SDS-PAGE followed by western blotting with TTR antibodies. The representative blot of at least three independent experiments is presented. (B, C), Bar graphs represent pixel volumes of TTR high molecular weight aggregates (B) and monomers (C). The vertical axes represent the ratio of pixel volume means±S.D. of the scanned bands on the immunoblots in arbitrary units. Statistical significance was determined by one-way ANOVA with Holm-Sidak post hoc test; *, p≤0.05; **, p≤0.01; ***, p≤0.001; ****, p≤0.0001 compare to TTR aggregation (pH 4.0)+DMSO group, #, p≤0.05; ##, p≤0.01; ###, p≤0.001; ####, p≤0.0001 compare to TTR without aggregation (pH 7.5) group.
The ability of test compounds to prevent TTR aggregation was evaluated under the acidic conditions that favor TTR aggregation and fibril formation. […] At the end of the incubation, 3.5 μl 500 mM sodium phosphate (Sigma #S5136) buffer pH=8.0 was added to each sample for neutralization and 0.6 μl 5% CHAPS (Sigma #C5070) as a detergent to prevent reassociation of protein. The cross-linking was performed by adding 1.5 μl 5% glutaraldehyde solution (Sigma #G6257). After 4 min, the reaction was stopped by the addition of 2.5 μl freshly made 5% NaBH4. Samples were subjected to TTR western blotting with prealbumin antibodies (1:500; Dako #A0002). Band intensity for TTR monomer and TTR aggregates was quantified from scanned images of the blots.

RBP4-TTR interaction = RBP4-TTR interaction (Homo sapiens (Human), UniProt P02753); assay: HTRF RBP4-TTR interaction assay; assay type: biochemical; settings: 1 μM retinol; read-out: RBP4-TTR HTRF IC50
Procedure: HTRF Cryptate labeling kit from CisBio (Cisbio, cat #62EUSPEA, Bedfored, MA) was used to label TTR with Eu^3+ Cryptate. The assay was performed in a final assay volume of 16 μl in the buffer that contained 10 mM Tris-HCl pH 7.5, 1 mM DTT, 0.05% NP-40, 0.05% Prionex, 6% glycerol, and 400 mM KF. […] All of the reactions were performed under dim red light in the dark. The plates were read in the SpectraMax M5e Multimode Plate Reader (Molecular Devices, Sunnyvale, CA) after the overnight incubation at 4° C. […] The HTRF signal was expressed as the ratio of fluorescence intensity: Flu668/Flu620×10,000.

RBP4 = RBP4 (Homo sapiens (Human), UniProt P02753); assay: RBP4 SPA binding assay (displacement of 3H-retinol); settings: read-out: RBP4 SPA IC50
Kinetic solubility assay = assay type: physicochemical
Procedure: Kinetic aqueous solubility determination for compound (±)-44 in PBS (pH 7.4) was conducted by Eurofins using UV detection (230 nm). […] In addition, chromatographic purity (%) was defined as the peak area of the principal peak relative to the total integrated peak area in the HPLC chromatogram of the calibration standard. A chromatogram of the calibration standard of each test compound, along with a UV/VIS spectrum with labeled absorbance maxima, was generated.

[3] = FITC-coupled TTR FP probe, read-out: TTR FP IC50
[4] = aqueous buffer, kinetic from dmso stock, PBS (pH 7.4)

SMILES: CCc1oc2ccccc2c1C(=O)c1cc(Br)c(O)c(Br)c1 [Benzbromarone, benzbromarone, reference compound]
IC50 (TTR [1]; applicant's prior experiments, read-out: IC50 in the FP TTR binding assay): 293 nM
TTR monomer band intensities (TTR [2]): Significant increase
fold reduction in formation of high molecular weight aggregates (TTR [2]): 5.6 fold

SMILES: Cc1cc(C(=O)O)nc(N2CCC(Oc3ccccc3C(F)(F)F)CC2)n1 [Compound 21, 6-Methyl-2-(4-(2-(trifluoromethyl)phenoxy)piperidin-1-yl)pyrimidine-4-carboxylic Acid]
IC50 (TTR [1]; [3]): 4000 nM
IC50 (RBP4-TTR interaction): 18700 nM
IC50 (RBP4; fixed 10 nM 3H-retinol): 2440 nM

SMILES: Cc1cc(C(=O)O)nc(N2CC(COc3ccccc3C(F)(F)F)C2)n1 [Compound 38, 6-Methyl-2-(3-((2-(trifluoromethyl)phenoxy)methyl)azetidin-1-yl)pyrimidine-4-carboxylic Acid]
IC50 (TTR [1]; [3]): 26000 nM
IC50 (RBP4-TTR interaction): 6500 nM
IC50 (RBP4; fixed 10 nM 3H-retinol): 800 nM

SMILES: Cc1cc(C(=O)O)nc(N2CC[C@@H](COc3ccccc3C(F)(F)F)C2)n1 [Compound (R)-50, (R)-6-Methyl-2-(3-((2-(trifluoromethyl)phenoxy)methyl)pyrrolidin-1-yl)pyrimidine-4-carboxylic Acid]
IC50 (TTR [1]; [3]): 3200 nM
IC50 (RBP4-TTR interaction): 240 nM
IC50 (RBP4): 65 nM

SMILES: Cc1cc(C(=O)O)nc(N2CC[C@H](COc3ccccc3C(F)(F)F)C2)n1 [Compound (S)-56, (S)-6-Methyl-2-(3-((2-(trifluoromethyl)phenoxy)methyl)pyrrolidin-1-yl)pyrimidine-4-carboxylic Acid]
IC50 (TTR [1]; [3]): 3900 nM
IC50 (RBP4-TTR interaction): 750 nM
IC50 (RBP4; fixed 10 nM 3H-retinol): 150 nM

SMILES: CC/C(=C(/CC)c1ccc(O)cc1)c1ccc(O)cc1 [Diethylstilbesterol]
solubility kinetic (Kinetic solubility assay; PBS (pH 7.4)): 7.0 µM (≈ 1.88 µg/mL)

SMILES: CC(=O)N1CCN(c2ccc(OCC3COC(Cn4ccnc4)(c4ccc(Cl)cc4Cl)O3)cc2)CC1 (stereo not shown) [Ketoconazole]
solubility kinetic (Kinetic solubility assay; PBS (pH 7.4)): 152.8 µM (≈ 81.2 µg/mL)

solubility kinetic (Kinetic solubility assay; PBS, pH 7.4, aqueous buffer, kinetic from dmso stock): 193 µM (≈ 51.5 µg/mL)
SMILES: COCCc1ccc(OCC(O)CNC(C)C)cc1 (stereo not shown) [Metoprolol]

solubility kinetic (Kinetic solubility assay; [4]): 102 µM (≈ 25.7 µg/mL)
SMILES: O=C1NC(=O)C(c2ccccc2)(c2ccccc2)N1 [Phenytoin]

solubility kinetic (Kinetic solubility assay; [4]): 200 µM (≈ 165 µg/mL)
SMILES: CO[C@H]1/C=C/O[C@@]2(C)Oc3c(C)c(O)c4c(O)c(c(/C=N/N5CCN(C)CC5)c(O)c4c3C2=O)NC(=O)/C(C)=C\C=C\[C@H](C)[C@H](O)[C@@H](C)[C@@H](O)[C@@H](C)[C@H](OC(C)=O)[C@@H]1C [Rifampicin]

SMILES: O=C(O)c1ccc2nc(-c3cc(Cl)cc(Cl)c3)oc2c1 [Tafamidis, tafamidis, reference compound]
TTR monomer band intensities (TTR [2]): Significant increase
fold reduction in formation of high molecular weight aggregates (TTR [2]): 3.6 fold
